Laboratory results as given in the supplement of paper PMC10307832.

What was measured:
Experiment in all cases: relative viability (nuclei count vs DMSO), 5 days (fraction); higher = more cells survive
LU99A = test system: LU99A
Summary of the method: (§1)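 Lung cancer cell lines were pin-tool dosed in 1536-well plates on the day after seeding, with either a lone drug or a fixed anchor-drug dose plus five library-drug doses (not always all listed) in √10 steps. Nuclei were counted on 4× images after 5 days. Relative viability is the ratio of treated-well to vehicle-well nuclei counts, with each value a median of duplicate plates.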

SK-MES-1 = test system: SK-MES-1
Summary of the method: as §1

HARA = test system: HARA
Summary of the method: as §1

COR-L23 = test system: COR-L23
Summary of the method: as §1

COR-L 105 = test system: COR-L 105
Summary of the method: as §1

LXF-289 = test system: LXF-289
Summary of the method: as §1

NCI-H727 = test system: NCI-H727
Summary of the method: as §1

NCI-H2170 = test system: NCI-H2170
Summary of the method: as §1

CAL-12T = test system: CAL-12T
Summary of the method: as §1

NCI-H2009 = test system: NCI-H2009
Summary of the method: as §1

HCC-366 = test system: HCC-366
Summary of the method: as §1

PC-3 [JPC-3] = test system: PC-3 [JPC-3]
Summary of the method: as §1

NCI-H2126 = test system: NCI-H2126
Summary of the method: as §1

BEN = test system: BEN
Summary of the method: as §1

HCC-15 = test system: HCC-15
Summary of the method: as §1

HCC-827 = test system: HCC-827
Summary of the method: as §1

NCI-H1993 = test system: NCI-H1993
Summary of the method: as §1

HCC-44 = test system: HCC-44
Summary of the method: as §1

LCLC-97TM1 = test system: LCLC-97TM1
Summary of the method: as §1

PC-14 = test system: PC-14
Summary of the method: as §1

LC-2-ad = test system: LC-2-ad
Summary of the method: as §1

HOP-62 = test system: HOP-62
Summary of the method: as §1

NCI-H2087 = test system: NCI-H2087
Summary of the method: as §1

O=C(O)CCCCC(CCSCc1ccccc1)SCc1ccccc1 (centres undefined) [CPI-613] + O=C(c1cc(Cc2n[nH]c(=O)c3ccccc23)ccc1F)N1CCN(C(=O)C2CC2)CC1 [Olaparib] (partner 8 µM)
relative viability (LU99A; first compound 5 µM): 0.26 | relative viability (LU99A; first compound 15.81 µM): 0.237 | relative viability (LU99A; first compound 50 µM): 0.242 | relative viability (LU99A; first compound 158.11 µM): 0.127 | relative viability (LU99A; first compound 500 µM): 0.161 | relative viability (SK-MES-1; first compound 5 µM): 0.641 | relative viability (SK-MES-1; first compound 15.81 µM): 0.635 | relative viability (SK-MES-1; first compound 50 µM): 0.556 | relative viability (SK-MES-1; first compound 158.11 µM): 0.163 | relative viability (SK-MES-1; first compound 500 µM): 0.0936 | relative viability (HARA; first compound 5 µM): 0.509 | relative viability (HARA; first compound 15.81 µM): 0.813 | relative viability (HARA; first compound 50 µM): 0.772 | relative viability (HARA; first compound 158.11 µM): 0.25 | relative viability (HARA; first compound 500 µM): 0.0476 | relative viability (COR-L23; first compound 5 µM): 0.369 | relative viability (COR-L23; first compound 15.81 µM): 0.299 | relative viability (COR-L23; first compound 50 µM): 0.389 | relative viability (COR-L23; first compound 158.11 µM): 0.175 | relative viability (COR-L23; first compound 500 µM): 0.0294 | relative viability (COR-L 105; first compound 5 µM): 0.78 | relative viability (COR-L 105; first compound 15.81 µM): 0.685 | relative viability (COR-L 105; first compound 50 µM): 0.739 | relative viability (COR-L 105; first compound 158.11 µM): 0.268 | relative viability (COR-L 105; first compound 500 µM): 0.28 | relative viability (LXF-289; first compound 5 µM): 0.988 | relative viability (LXF-289; first compound 15.81 µM): 1 | relative viability (LXF-289; first compound 50 µM): 1 | relative viability (LXF-289; first compound 158.11 µM): 0.692 | relative viability (LXF-289; first compound 500 µM): 0.8 | relative viability (NCI-H727; first compound 5 µM): 0.783 | relative viability (NCI-H727; first compound 15.81 µM): 0.672 | relative viability (NCI-H727; first compound 50 µM): 0.631 | relative viability (NCI-H727; first compound 158.11 µM): 0.748 | relative viability (NCI-H727; first compound 500 µM): 0.678 | relative viability (NCI-H2170; first compound 5 µM): 0.591 | relative viability (NCI-H2170; first compound 15.81 µM): 0.554 | relative viability (NCI-H2170; first compound 50 µM): 0.534 | relative viability (NCI-H2170; first compound 158.11 µM): 0.403 | relative viability (NCI-H2170; first compound 500 µM): 0.18 | relative viability (CAL-12T; first compound 5 µM): 0.72 | relative viability (CAL-12T; first compound 15.81 µM): 0.634 | relative viability (CAL-12T; first compound 50 µM): 0.627 | relative viability (CAL-12T; first compound 158.11 µM): 0.473 | relative viability (CAL-12T; first compound 500 µM): 0.488 | relative viability (NCI-H2009; first compound 5 µM): 0.703 | relative viability (NCI-H2009; first compound 15.81 µM): 0.707 | relative viability (NCI-H2009; first compound 50 µM): 0.67 | relative viability (NCI-H2009; first compound 158.11 µM): 0.109 | relative viability (NCI-H2009; first compound 500 µM): 0.0171 | relative viability (HCC-366; first compound 5 µM): 0.392 | relative viability (HCC-366; first compound 15.81 µM): 0.37 | relative viability (HCC-366; first compound 50 µM): 0.41 | relative viability (HCC-366; first compound 158.11 µM): 0.0554 | relative viability (HCC-366; first compound 500 µM): 0.0079 | relative viability (PC-3 [JPC-3]; first compound 5 µM): 1.11 | relative viability (PC-3 [JPC-3]; first compound 50 µM): 0.953 | relative viability (PC-3 [JPC-3]; first compound 158.11 µM): 0.32 | relative viability (PC-3 [JPC-3]; first compound 500 µM): 0.1 | relative viability (NCI-H2126; first compound 5 µM): 0.904 | relative viability (NCI-H2126; first compound 15.81 µM): 1.07 | relative viability (NCI-H2126; first compound 50 µM): 0.845 | relative viability (NCI-H2126; first compound 158.11 µM): 0.757 | relative viability (NCI-H2126; first compound 500 µM): 0.128 | relative viability (BEN; first compound 5 µM): 1.09 | relative viability (BEN; first compound 15.81 µM): 0.853 | relative viability (BEN; first compound 50 µM): 0.909 | relative viability (BEN; first compound 158.11 µM): 0.786 | relative viability (BEN; first compound 500 µM): 0.931 | relative viability (HCC-15; first compound 5 µM): 0.743 | relative viability (HCC-15; first compound 15.81 µM): 0.712 | relative viability (HCC-15; first compound 50 µM): 0.612 | relative viability (HCC-15; first compound 158.11 µM): 0.178 | relative viability (HCC-15; first compound 500 µM): 0.0853 | relative viability (HCC-827; first compound 5 µM): 0.558 | relative viability (HCC-827; first compound 15.81 µM): 0.602 | relative viability (HCC-827; first compound 50 µM): 0.691 | relative viability (HCC-827; first compound 158.11 µM): 0.691 | relative viability (HCC-827; first compound 500 µM): 0.538 | relative viability (NCI-H1993; first compound 5 µM): 1.15 | relative viability (NCI-H1993; first compound 15.81 µM): 0.918 | relative viability (NCI-H1993; first compound 50 µM): 0.908 | relative viability (NCI-H1993; first compound 158.11 µM): 0.6 | relative viability (NCI-H1993; first compound 500 µM): 0.421 | relative viability (HCC-44; first compound 5 µM): 0.97 | relative viability (HCC-44; first compound 15.81 µM): 0.95 | relative viability (HCC-44; first compound 50 µM): 0.925 | relative viability (HCC-44; first compound 158.11 µM): 0.629 | relative viability (HCC-44; first compound 500 µM): 0.469 | relative viability (LCLC-97TM1; first compound 5 µM): 0.322 | relative viability (LCLC-97TM1; first compound 15.81 µM): 0.287 | relative viability (LCLC-97TM1; first compound 50 µM): 0.372 | relative viability (LCLC-97TM1; first compound 158.11 µM): 0.183 | relative viability (LCLC-97TM1; first compound 500 µM): 0.191 | relative viability (PC-14; first compound 5 µM): 0.283 | relative viability (PC-14; first compound 15.81 µM): 0.231 | relative viability (PC-14; first compound 50 µM): 0.262 | relative viability (PC-14; first compound 158.11 µM): 0.078 | relative viability (PC-14; first compound 500 µM): 0.0073 | relative viability (LC-2-ad; first compound 5 µM): 0.629 | relative viability (LC-2-ad; first compound 15.81 µM): 0.634 | relative viability (LC-2-ad; first compound 50 µM): 0.653 | relative viability (LC-2-ad; first compound 158.11 µM): 0.214 | relative viability (LC-2-ad; first compound 500 µM): 0.0817 | relative viability (HOP-62; first compound 5 µM): 0.298 | relative viability (HOP-62; first compound 15.81 µM): 0.471 | relative viability (HOP-62; first compound 50 µM): 0.368 | relative viability (HOP-62; first compound 158.11 µM): 0.459 | relative viability (HOP-62; first compound 500 µM): 0.459 | relative viability (NCI-H2087; first compound 5 µM): 0.517 | relative viability (NCI-H2087; first compound 15.81 µM): 0.522 | relative viability (NCI-H2087; first compound 50 µM): 0.627 | relative viability (NCI-H2087; first compound 158.11 µM): 0.0403 | relative viability (NCI-H2087; first compound 500 µM): 0.0077
